The assay addresses T1, hOT7T175 (Homo sapiens, UniProt Q969F8).
T1 construct: expressed in transfected cells
Kind of assay: Assay for intracellular Ca ion level-increasing activity using FLIPR. It is filed as cell-based. As to conditions: hOT7T175/CHO cells, relative to Metastin (1-54). On the procedure:
In accordance with the method described in JPA 2000-312590, the intracellular Ca ion level-increasing activity was measured using FLIPR.
The stable expression cell line hOT7T175 was obtained by transfection of the expression plasmid pAK-rOT175 for animal cells into CHO/dhfr^− cells, using CellPhect Transfection Kit (Amersham Pharmacia Biotech, Inc.). First, 240 μL of Buffer A (attached to CellPhect Transfection Kit) was added to 9.6 μg of plasmid DNA dissolved in 240 μL of distilled water followed by stirring. After the mixture was settled for 10 minutes, 480 μL of Buffer B (attached to CellPhect Transfection Kit) was added to the mixture, which was vigorously stirred to form liposomes containing the DNA. Then, 4×10^5 CHO/dhfr^− cells (obtained from ATCC) were inoculated on a 60 mm Petri dish. After culturing the cells in Ham's F-12 medium (Nissui Seiyaku Co., Ltd.) supplemented with 10% fetal bovine serum (BIO WHITTAKER, Inc.) at 37° C. for 2 days in 5% carbon dioxide gas, […] of the liposomes were dropwise added to the cells on the Petri dish. After culturing the cells at 37° C. for 6 hours in 5% carbon dioxide gas, the cells were washed twice with serum-free Ham's F-12 medium and 3 mL of 15% glycerol was added to the cells on the Petri dish followed by treatment for 2 minutes. The cells were again washed twice with serum-free Ham's F-12 medium followed by incubation in Ham's F-12 medium supplemented with 10% fetal bovine serum at 37° C. for 15 hours in 5% carbon dioxide gas. The cells were dispersed by trypsin treatment to recover from the Petri dish. The recovered cells were inoculated on a 6-well plate in 1.25×10^4 cells/well and incubation was initiated at 37° C. in Dulbecco's modified Eagle medium (DMEM) medium (Nissui Seiyaku Co., Ltd.) containing 10% dialyzed fetal bovine serum (JRH BIOSCIENCES, Inc.) in 5% carbon dioxide gas. The plasmid-transfected CHO transformants grew in the medium but the non-transfected cells gradually died, accordingly the medium was exchanged on Days 1 and 2 after the initiation of incubation to remove the cells died. Approximately 20 colonies of the CHO transformants that kept growing on Days 8 to 10 after the incubation were isolated. From the cells in these colonies, cells showing high reactivity with the ligand peptide metastin (hereinafter merely referred to as hOT7T175/CHO) were selected to provide for the following experiment.
The intracellular Ca ion level-increasing activity of the synthetic peptide in hOT7T175/CHO was determined using FLIPR (Molecular Devices, Inc.).
hOT7T175/CHO was subcultured in DMEM supplemented with 10% dialyzed fetal bovine serum (hereinafter abbreviated as dFBS) (hereinafter referred to as 10% dFBS/DMEM) and provided for the experiment. The hOT7T175/CHO was suspended in 10% dFBS-DMEM in 15×10^4 cells/ml. The suspension was inoculated on a 96-well plate for FLIPR (Black Plate Clear Bottom, Coster, Inc.) at 200 μl/well (3.0×10^4 cells/200 μL/well), followed by incubation at 37° C. overnight in a 5% CO2 incubator (hereinafter referred to as the cell plate). Then, 21 ml of HANKS/HBSS (9.8 g of HANKS, 0.35 g of sodium hydrogencarbonate, 20 ml of 1M HEPES; after adjusting the pH to 7.4 with 1N sodium hydroxide, the mixture was sterilized by filtration), 210 μl of 250 mM Probenecid and 210 μl of fetal bovine serum (FBS) (HANKS/HBSS-Probenecid-FBS) were mixed.
Furthermore, 2 vials of Fluo3-AM (50 μg/vial) were dissolved in 21 μL of dimethylsulfoxide and 21 μL of 20% Pluronic acid. The resulting solution was added to and mixed with 10 ml of the HANKS/HBSS-Probenecid-FBS described above. After the culture medium was removed, the mixture was dispensed onto the cell plate in 100 μl each/well, followed by incubation at 37° C. for an hour in a 5% CO2 incubator (pigment loading). The peptide was dissolved in dimethylsulfoxide in 1×10^−3 M. The peptide solution was diluted with HANKS/HBSS containing 2.5 mM Probenecid, 0.2% BSA and 0.1% CHAPS. […]

Square brackets hold non-standard residues; d marks the D form. Peptide text beside a SMILES is read from it. Arg(Me) = CNC(=N)NCCC[C@H](N)C(=O)O; dDap = NC[C@@H](N)C(=O)O; dNMeA = CN[C@H](C)C(=O)O; Dab = NCC[C@H](N)C(=O)O; azaGly = NNC(=O)O; Sar = CNCC(=O)O

T1 sequence (Q969F8 whole entry L364H): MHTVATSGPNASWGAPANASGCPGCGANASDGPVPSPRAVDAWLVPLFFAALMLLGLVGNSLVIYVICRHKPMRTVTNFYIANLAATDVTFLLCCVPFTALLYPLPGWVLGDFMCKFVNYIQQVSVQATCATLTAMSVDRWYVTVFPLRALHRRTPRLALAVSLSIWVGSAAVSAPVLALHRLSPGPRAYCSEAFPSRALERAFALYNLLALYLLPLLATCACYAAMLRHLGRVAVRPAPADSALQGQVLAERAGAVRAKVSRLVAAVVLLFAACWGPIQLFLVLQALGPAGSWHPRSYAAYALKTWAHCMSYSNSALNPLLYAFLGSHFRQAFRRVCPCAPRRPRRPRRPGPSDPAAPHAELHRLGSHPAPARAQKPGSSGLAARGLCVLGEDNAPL

For the compound `CNC(=N)NCCC[C@H](NC(=O)[C@H](CC(C)C)NC(=O)NNC(=O)[C@H](Cc1ccccc1)NC(=O)[C@@H](NC(=O)[C@H](CC(N)=O)NC(=O)CN(C)C(=O)[C@@H](Cc1ccc(O)cc1)NC(C)=O)[C@@H](C)O)C(=O)N[C@@H](Cc1c[nH]c2ccccc12)C(N)=O` [Compound No. 731, Ac-D-Tyr-Sar-Asn-Thr-Phe-AzaGly-Leu-Arg(Me)-Trp-NH2] (Ac-[dY][Sar]NTF[azaGly]L[Arg(Me)]W-NH2), the “Specific Activity: intracellular Ca ion level-increasing activity [specific activity to Metastin (1-54)]” value came out at 8.8.
On to `CNC(=N)NCCC[C@H](NC(=O)[C@H](CC(C)C)NC(=O)NNC(=O)[C@H](Cc1ccccc1)NC(=O)[C@@H](NC(=O)[C@H](CC(N)=O)NC(=O)[C@@H](C)N(C)C(=O)[C@@H](Cc1ccc(O)cc1)NC(C)=O)[C@@H](C)O)C(=O)N[C@@H](Cc1c[nH]c2ccccc12)C(N)=O` [Compound No. 732, Ac-D-Tyr-D-NMeAla-Asn-Thr-Phe-AzaGly-Leu-Arg(Me)-Trp-NH2] (Ac-[dY][dNMeA]NTF[azaGly]L[Arg(Me)]W-NH2), for which the “Specific Activity: intracellular Ca ion level-increasing activity [specific activity to Metastin (1-54)]” value worked out at 3.2.
As for `CNC(=N)NCCC[C@H](NC(=O)[C@H](CC(C)C)NC(=O)NNC(=O)[C@H](Cc1ccccc1)NC(=O)[C@@H](NC(=O)[C@H](CC(N)=O)NC(=O)[C@@H]1NCCN1C(=O)[C@@H](Cc1ccc(O)cc1)NC(C)=O)[C@@H](C)O)C(=O)N[C@@H](Cc1c[nH]c2ccccc12)C(N)=O` [Compound No. 734, Ac-D-Tyr-Izc-Asn-Thr-Phe-AzaGly-Leu-Arg(Me)-Trp-NH2], the “Specific Activity: intracellular Ca ion level-increasing activity [specific activity to Metastin (1-54)]” value was 2.3.
With `CNC(=N)NCCC[C@H](NC(=O)[C@H](CC(C)C)NC(=O)NNC(=O)[C@H](Cc1ccccc1)NC(=O)[C@@H](NC(=O)[C@H](CC(N)=O)NC(=O)[C@@H](CC(=O)O)NC(=O)[C@@H](Cc1ccc(O)cc1)NC(C)=O)[C@@H](C)O)C(=O)N[C@@H](Cc1c[nH]c2ccccc12)C(N)=O` [Compound No. 735, Ac-D-Tyr-D-Asp-Asn-Thr-Phe-AzaGly-Leu-Arg(Me)-Trp-NH2] (Ac-[dY][dD]NTF[azaGly]L[Arg(Me)]W-NH2), the “Specific Activity: intracellular Ca ion level-increasing activity [specific activity to Metastin (1-54)]” value turned out to be 3.4.
As to `CNC(=N)NCCC[C@H](NC(=O)[C@H](CC(C)C)NC(=O)NNC(=O)[C@H](Cc1ccccc1)NC(=O)[C@@H](NC(=O)[C@H](CC(N)=O)NC(=O)[C@@H](CN)NC(=O)[C@@H](Cc1ccc(O)cc1)NC(C)=O)[C@@H](C)O)C(=O)N[C@@H](Cc1c[nH]c2ccccc12)C(N)=O` [Compound No. 736, Ac-D-Tyr-D-Dap-Asn-Thr-Phe-AzaGly-Leu-Arg(Me)-Trp-NH2] (Ac-[dY][dDap]NTF[azaGly]L[Arg(Me)]W-NH2), the “Specific Activity: intracellular Ca ion level-increasing activity [specific activity to Metastin (1-54)]” value turned out to be 2.4.
In the case of `CNC(=N)NCCC[C@H](NC(=O)[C@H](CC(C)C)NC(=O)NNC(=O)[C@H](Cc1ccccc1)NC(=O)[C@@H](NC(=O)[C@H](CC(N)=O)NC(=O)[C@@H](CO)NC(=O)[C@@H](Cc1ccc(O)cc1)NC(C)=O)[C@@H](C)O)C(=O)N[C@@H](Cc1c[nH]c2ccccc12)C(N)=O` [Compound No. 737, Ac-D-Tyr-D-Ser-Asn-Thr-Phe-AzaGly-Leu-Arg(Me)-Trp-NH2] (Ac-[dY][dS]NTF[azaGly]L[Arg(Me)]W-NH2), the “Specific Activity: intracellular Ca ion level-increasing activity [specific activity to Metastin (1-54)]” value is listed as 3.0.
For the compound `CNC(=N)NCCC[C@H](NC(=O)[C@H](CC(C)C)NC(=O)NNC(=O)[C@H](Cc1ccccc1)NC(=O)[C@@H](NC(=O)[C@H](CC(N)=O)NC(=O)[C@@H](CCC(N)=O)NC(=O)[C@@H](Cc1ccc(O)cc1)NC(C)=O)[C@@H](C)O)C(=O)N[C@@H](Cc1c[nH]c2ccccc12)C(N)=O` [Compound No. 738, Ac-D-Tyr-D-Gln-Asn-Thr-Phe-AzaGly-Leu-Arg(Me)-Trp-NH2] (Ac-[dY][dQ]NTF[azaGly]L[Arg(Me)]W-NH2), the “Specific Activity: intracellular Ca ion level-increasing activity [specific activity to Metastin (1-54)]” value was determined as 1.4.
Take `CNC(=N)NCCC[C@H](NC(=O)[C@H](CC(C)C)NC(=O)NNC(=O)[C@H](Cc1ccccc1)NC(=O)[C@@H](NC(=O)[C@H](CC(N)=O)NC(=O)[C@@H](Cc1cnc[nH]1)NC(=O)[C@@H](Cc1ccc(O)cc1)NC(C)=O)[C@@H](C)O)C(=O)N[C@@H](Cc1c[nH]c2ccccc12)C(N)=O` [Compound No. 739, Ac-D-Tyr-D-His-Asn-Thr-Phe-AzaGly-Leu-Arg(Me)-Trp-NH2] (Ac-[dY][dH]NTF[azaGly]L[Arg(Me)]W-NH2): the “Specific Activity: intracellular Ca ion level-increasing activity [specific activity to Metastin (1-54)]” value came out at 1.6.
`CNC(=N)NCCC[C@H](NC(=O)[C@H](CC(C)C)NC(=O)NNC(=O)[C@H](Cc1ccccc1)NC(=O)[C@@H](NC(=O)[C@H](CCN)NC(=O)[C@@H](Cc1c[nH]c2ccccc12)NC(=O)[C@@H](Cc1ccc(O)cc1)NC(C)=O)[C@@H](C)O)C(=O)N[C@@H](Cc1c[nH]c2ccccc12)C(N)=O` [Compound No. 740, Ac-D-Tyr-D-Trp-Dab-Thr-Phe-AzaGly-Leu-Arg(Me)-Trp-NH2] (Ac-[dY][dW][Dab]TF[azaGly]L[Arg(Me)]W-NH2): the “Specific Activity: intracellular Ca ion level-increasing activity [specific activity to Metastin (1-54)]” value was determined as 1.1.
Take `CNC(=N)NCCC[C@H](NC(=O)[C@H](CC(C)C)NC(=O)NNC(=O)[C@H](Cc1ccccc1)NC(=O)[C@@H](NC(=O)[C@H](CC(N)=O)NC(=O)[C@H](C)NC(=O)[C@@H](Cc1ccc(O)cc1)NC(C)=O)[C@@H](C)O)C(=O)N[C@@H](Cc1c[nH]c2ccccc12)C(N)=O` [Compound No. 742, Ac-D-Tyr-Ala-Asn-Thr-Phe-AzaGly-Leu-Arg(Me)-Trp-NH2] (Ac-[dY]ANTF[azaGly]L[Arg(Me)]W-NH2): the “Specific Activity: intracellular Ca ion level-increasing activity [specific activity to Metastin (1-54)]” value was 2.3.
Then `CNC(=N)NCCC[C@H](NC(=O)[C@H](CC(C)C)NC(=O)NNC(=O)[C@H](Cc1ccccc1)NC(=O)[C@@H](NC(=O)[C@H](CC(N)=O)NC(=O)[C@H](CC(C)C)NC(=O)[C@@H](Cc1ccc(O)cc1)NC(C)=O)[C@@H](C)O)C(=O)N[C@@H](Cc1c[nH]c2ccccc12)C(N)=O` [Compound No. 743, Ac-D-Tyr-Leu-Asn-Thr-Phe-AzaGly-Leu-Arg(Me)-Trp-NH2] (Ac-[dY]LNTF[azaGly]L[Arg(Me)]W-NH2), with 3.4; and `CNC(=N)NCCC[C@H](NC(=O)[C@H](CC(C)C)NC(=O)NNC(=O)[C@H](Cc1ccccc1)NC(=O)[C@@H](NC(=O)[C@H](CC(N)=O)NC(=O)[C@H](CO)NC(=O)[C@@H](Cc1ccc(O)cc1)NC(C)=O)[C@@H](C)O)C(=O)N[C@@H](Cc1c[nH]c2ccccc12)C(N)=O` [Compound No. 744, Ac-D-Tyr-Ser-Asn-Thr-Phe-AzaGly-Leu-Arg(Me)-Trp-NH2] (Ac-[dY]SNTF[azaGly]L[Arg(Me)]W-NH2), with 2.4; and `CNC(=N)NCCC[C@H](NC(=O)[C@H](CC(C)C)NC(=O)NNC(=O)[C@H](Cc1ccccc1)NC(=O)[C@@H](NC(=O)[C@H](CC(N)=O)NC(=O)[C@H](CCCCN)NC(=O)[C@@H](Cc1ccc(O)cc1)NC(C)=O)[C@@H](C)O)C(=O)N[C@@H](Cc1c[nH]c2ccccc12)C(N)=O` [Compound No. 745, Ac-D-Tyr-Lys-Asn-Thr-Phe-AzaGly-Leu-Arg(Me)-Trp-NH2] (Ac-[dY]KNTF[azaGly]L[Arg(Me)]W-NH2), with 3.0.

Source of the values: patent US8404643B2, “Metastin derivatives and use thereof” (priority 2005, dated 2013).
